Data published in ChEMBL document CHEMBL1141870, “Discovery of potent chromen-4-one inhibitors of the DNA-dependent protein kinase (DNA-PK) using a small-molecule library approach” (J Med Chem, 2005).

Molecular target: DNA-dependent protein kinase catalytic subunit (Homo sapiens, UniProt P78527)
Test: Inhibition against DNA-dependent protein kinase receptor at 0.5uM

DNA-dependent protein kinase catalytic subunit, sequence (P78527 whole entry): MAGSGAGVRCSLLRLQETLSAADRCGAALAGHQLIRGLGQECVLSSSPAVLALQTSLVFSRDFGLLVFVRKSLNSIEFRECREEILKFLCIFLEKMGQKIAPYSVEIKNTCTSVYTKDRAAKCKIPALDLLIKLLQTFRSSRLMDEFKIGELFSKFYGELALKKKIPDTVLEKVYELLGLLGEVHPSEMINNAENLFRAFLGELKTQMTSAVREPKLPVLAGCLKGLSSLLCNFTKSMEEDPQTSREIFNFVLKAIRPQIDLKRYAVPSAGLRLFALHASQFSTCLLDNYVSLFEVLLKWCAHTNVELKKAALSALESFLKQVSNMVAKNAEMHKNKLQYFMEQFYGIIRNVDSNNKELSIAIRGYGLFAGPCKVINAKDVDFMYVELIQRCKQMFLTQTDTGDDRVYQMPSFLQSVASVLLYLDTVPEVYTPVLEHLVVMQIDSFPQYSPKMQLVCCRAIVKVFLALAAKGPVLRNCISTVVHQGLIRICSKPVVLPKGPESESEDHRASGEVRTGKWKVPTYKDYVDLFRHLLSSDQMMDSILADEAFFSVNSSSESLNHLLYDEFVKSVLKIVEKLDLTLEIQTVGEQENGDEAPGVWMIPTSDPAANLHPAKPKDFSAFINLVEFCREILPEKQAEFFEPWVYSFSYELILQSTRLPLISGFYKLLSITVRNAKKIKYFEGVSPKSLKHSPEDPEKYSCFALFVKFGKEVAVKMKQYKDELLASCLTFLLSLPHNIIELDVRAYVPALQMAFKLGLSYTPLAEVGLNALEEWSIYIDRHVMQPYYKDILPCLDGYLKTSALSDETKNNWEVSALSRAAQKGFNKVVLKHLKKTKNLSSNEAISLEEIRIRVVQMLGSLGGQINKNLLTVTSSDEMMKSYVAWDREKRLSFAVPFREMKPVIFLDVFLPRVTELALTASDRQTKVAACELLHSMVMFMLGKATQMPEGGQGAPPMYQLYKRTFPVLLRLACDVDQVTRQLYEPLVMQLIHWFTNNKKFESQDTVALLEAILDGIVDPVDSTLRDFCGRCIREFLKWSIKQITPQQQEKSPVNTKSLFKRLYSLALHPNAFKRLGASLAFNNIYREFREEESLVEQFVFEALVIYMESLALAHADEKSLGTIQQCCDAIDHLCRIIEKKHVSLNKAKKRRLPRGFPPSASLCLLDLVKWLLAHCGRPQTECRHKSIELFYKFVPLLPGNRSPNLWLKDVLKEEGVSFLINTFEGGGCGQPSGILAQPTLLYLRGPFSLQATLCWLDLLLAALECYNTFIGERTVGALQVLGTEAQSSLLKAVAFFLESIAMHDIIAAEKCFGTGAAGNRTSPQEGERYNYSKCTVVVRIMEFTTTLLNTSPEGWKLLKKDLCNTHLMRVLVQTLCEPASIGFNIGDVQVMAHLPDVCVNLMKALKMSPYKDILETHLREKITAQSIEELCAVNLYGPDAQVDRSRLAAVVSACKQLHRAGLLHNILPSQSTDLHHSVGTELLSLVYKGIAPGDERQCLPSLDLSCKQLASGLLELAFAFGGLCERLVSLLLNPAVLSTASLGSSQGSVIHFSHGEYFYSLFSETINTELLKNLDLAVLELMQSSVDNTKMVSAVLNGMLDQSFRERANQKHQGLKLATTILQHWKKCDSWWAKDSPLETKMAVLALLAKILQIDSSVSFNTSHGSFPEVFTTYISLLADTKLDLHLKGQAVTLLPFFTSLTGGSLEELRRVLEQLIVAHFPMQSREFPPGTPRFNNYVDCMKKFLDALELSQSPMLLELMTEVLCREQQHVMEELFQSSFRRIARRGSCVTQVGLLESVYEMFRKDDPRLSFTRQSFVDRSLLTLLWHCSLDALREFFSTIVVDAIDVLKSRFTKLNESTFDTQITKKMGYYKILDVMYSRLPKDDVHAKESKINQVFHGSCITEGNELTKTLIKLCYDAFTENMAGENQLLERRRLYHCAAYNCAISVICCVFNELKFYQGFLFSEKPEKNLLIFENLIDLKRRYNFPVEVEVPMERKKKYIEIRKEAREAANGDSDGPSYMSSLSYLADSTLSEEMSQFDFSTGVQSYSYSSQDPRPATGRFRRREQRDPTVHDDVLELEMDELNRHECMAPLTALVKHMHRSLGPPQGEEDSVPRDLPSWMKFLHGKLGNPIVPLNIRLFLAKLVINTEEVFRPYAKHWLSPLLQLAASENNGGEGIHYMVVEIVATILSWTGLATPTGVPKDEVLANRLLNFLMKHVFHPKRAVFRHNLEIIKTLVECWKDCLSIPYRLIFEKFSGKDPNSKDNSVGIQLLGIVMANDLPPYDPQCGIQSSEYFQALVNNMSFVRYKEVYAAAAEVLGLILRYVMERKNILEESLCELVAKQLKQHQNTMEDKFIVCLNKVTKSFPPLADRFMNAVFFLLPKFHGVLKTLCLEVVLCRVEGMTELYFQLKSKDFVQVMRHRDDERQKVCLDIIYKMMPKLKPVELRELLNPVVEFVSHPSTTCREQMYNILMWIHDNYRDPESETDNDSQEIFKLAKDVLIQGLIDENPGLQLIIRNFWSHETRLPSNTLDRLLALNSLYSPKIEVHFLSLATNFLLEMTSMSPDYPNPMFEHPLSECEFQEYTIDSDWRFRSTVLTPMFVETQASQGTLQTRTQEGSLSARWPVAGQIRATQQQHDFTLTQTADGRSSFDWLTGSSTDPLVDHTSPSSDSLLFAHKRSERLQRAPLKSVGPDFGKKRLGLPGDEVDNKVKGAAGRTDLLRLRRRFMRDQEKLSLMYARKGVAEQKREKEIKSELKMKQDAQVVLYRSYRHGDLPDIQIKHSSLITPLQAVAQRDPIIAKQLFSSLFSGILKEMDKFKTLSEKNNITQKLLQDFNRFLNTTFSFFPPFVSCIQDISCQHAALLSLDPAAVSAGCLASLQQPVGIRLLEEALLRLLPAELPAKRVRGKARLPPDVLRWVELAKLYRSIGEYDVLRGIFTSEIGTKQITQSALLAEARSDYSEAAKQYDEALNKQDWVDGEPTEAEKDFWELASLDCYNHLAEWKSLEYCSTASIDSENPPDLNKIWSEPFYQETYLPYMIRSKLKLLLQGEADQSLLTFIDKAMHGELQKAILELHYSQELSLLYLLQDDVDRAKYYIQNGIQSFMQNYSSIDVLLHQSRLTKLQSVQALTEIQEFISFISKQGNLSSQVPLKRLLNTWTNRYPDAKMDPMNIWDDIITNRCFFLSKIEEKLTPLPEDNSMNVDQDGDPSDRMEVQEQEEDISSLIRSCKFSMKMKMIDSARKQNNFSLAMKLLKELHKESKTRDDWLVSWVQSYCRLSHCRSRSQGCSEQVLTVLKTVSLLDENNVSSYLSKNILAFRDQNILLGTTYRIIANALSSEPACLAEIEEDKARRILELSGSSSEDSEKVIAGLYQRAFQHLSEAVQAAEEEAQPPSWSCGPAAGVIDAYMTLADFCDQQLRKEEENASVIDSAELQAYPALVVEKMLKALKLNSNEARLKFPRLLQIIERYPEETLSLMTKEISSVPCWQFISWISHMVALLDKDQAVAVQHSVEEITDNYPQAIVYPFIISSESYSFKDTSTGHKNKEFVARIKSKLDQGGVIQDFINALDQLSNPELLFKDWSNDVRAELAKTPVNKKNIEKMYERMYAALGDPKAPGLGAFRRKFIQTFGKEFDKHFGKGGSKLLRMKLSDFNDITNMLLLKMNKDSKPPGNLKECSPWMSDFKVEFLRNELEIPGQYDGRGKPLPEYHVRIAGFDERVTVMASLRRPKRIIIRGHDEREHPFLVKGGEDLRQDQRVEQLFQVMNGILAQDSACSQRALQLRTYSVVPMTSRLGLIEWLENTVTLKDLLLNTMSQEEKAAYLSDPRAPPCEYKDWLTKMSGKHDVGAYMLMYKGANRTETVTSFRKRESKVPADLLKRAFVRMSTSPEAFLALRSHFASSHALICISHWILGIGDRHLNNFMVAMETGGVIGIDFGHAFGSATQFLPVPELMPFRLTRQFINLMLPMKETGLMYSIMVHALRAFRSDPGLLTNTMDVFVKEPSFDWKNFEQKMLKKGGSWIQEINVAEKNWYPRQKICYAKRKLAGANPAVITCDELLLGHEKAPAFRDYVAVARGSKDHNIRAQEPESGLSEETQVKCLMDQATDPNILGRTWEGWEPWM

inhibition [%]	Structure (SMILES)
13	O=c1cc(N2CCOCC2)oc2ccc(-c3ccc4ncccc4c3)cc12
31	O=C(OCc1ccccc1)c1ccc(-c2ccc3oc(N4CCOCC4)cc(=O)c3c2)cc1
35	O=c1cc(N2CCOCC2)oc2ccc(-c3cccc(OCc4ccccc4)c3)cc12

Second part, the compound before the results:

Structure (SMILES)	inhibition [%]
O=c1cc(N2CCOCC2)oc2ccc(-c3cccc4c3sc3ccccc34)cc12	14
O=c1cc(N2CCOCC2)oc2ccc(-c3ccsc3)cc12	42
CC(=O)Nc1ccccc1-c1ccc2oc(N3CCOCC3)cc(=O)c2c1	60
CC(=O)c1ccccc1-c1ccc2c(=O)cc(N3CCOCC3)oc2c1	26
O=c1cc(N2CCOCC2)oc2cc(-c3cccc(O)c3)ccc12	33
